Experimental data as given in patent publication US20210325406A1 (priority 2018, published 2021).
Values joined by “and” are separate entries in the source; they are usually repeats but may differ in a detail not shown here. Identical values can stand only once. “Also recorded” adds a separate entry of the source. Like-named read-outs stand apart in the source and are kept apart here.

What was measured:
[1] = molecular target: T1, Au(III) embedded MspA-M (Mycolicibacterium smegmatis, UniProt A0QR29, D117N/D118M/D120N/D145R/D161R/E166K); assay type: binding
T1 sequence (A0QR29 28-211 D117N/D118M/D120N/D145R/D161R/E166K limits assumed): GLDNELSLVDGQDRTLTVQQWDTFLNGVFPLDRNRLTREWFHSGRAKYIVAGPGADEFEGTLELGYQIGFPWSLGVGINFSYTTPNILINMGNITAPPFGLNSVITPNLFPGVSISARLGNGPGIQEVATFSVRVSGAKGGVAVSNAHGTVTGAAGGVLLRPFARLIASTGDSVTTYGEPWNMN

[2] = molecular target: T1, Au(III) embedded MspA-M; assay type: binding; remark: listed apart in the source
[3] = molecular target: [AuCl4]− embedded MspA-M nanopore (Mycolicibacterium smegmatis, UniProt A0QR29, D117N/D118M/D120N/D145R/D161R/E166K)
[AuCl4]− embedded MspA-M nanopore, sequence (A0QR29 28-211 D117N/D118M/D120N/D145R/D161R/E166K): as the sequence (A0QR29 28-211 D117N/D118M/D120N/D145R/D161R/E166K limits assumed) above

Molecule: N[C@@H](CCC(=O)N[C@@H](CS)C(=O)NCC(=O)O)C(=O)O [L-Glutathione, L-glutathione]
- ΔI0−1, GSH/I0 [1]: 0.167 ± 0.023 and 0.151 ± 0.015 and 0.145 ± 0.015
- ΔI1−1, GSH [1]: 23.3 pA and 29.2 pA and 25.1 pA

Molecule: N[C@@H](CS)C(=O)O [L-Cysteine, L-cysteine]
- ΔI0−1, cys/I0 [1]: 0.104±0.008 and 0.105 ± 0.008 and 0.104 ± 0.007
- ΔI1−1, Cys [1]: 13.7 pA and 13.1 pA and 14.2 pA

Molecule: CSCC[C@H](N)C(=O)O [L-Methionine, L-methionine]
- absolute blockage amplitude from single L-methionine [2]: approximately 37 pA
- amplitude, times larger than previously reported amino acid sensing using engineered α-HL [2]: about 10 times
- dwell time of state 3, three independent measurements [2]: 10.05 ± 1.73 ms
- ΔI1-3, three independent measurements [2]: 48.67±0.91 pA

Molecule: NC(=O)C[C@H](N)C(=O)O [L-asparagine, reference compound]
- events like state 3 / extra sensing signals [2]: No extra sensing signals; also recorded: no events at all like state 3

Molecule: N[C@@H](CCS)C(=O)O [L-Homocysteine, L-homocysteine]
- ΔI0−1, Hcy/I0 [1]: 0.13±0.01 and 0.123 ± 0.01 and 0.129 ± 0.01 and 0.131 ± 0.01
- ΔI1−1, Hcy [1]: 21.8 pA and 22.7 pA and 23.6 pA

Molecule: NCC(=O)O [L-glycine, reference compound]
- events like state 3 / extra sensing signals [2]: No extra sensing signals; also recorded: no events at all like state 3

B1: 78-nt: 78 nucleotide ssDNA composed of a random sequence (Table 6) (nucleic acid)
DNA: AAGCAGACAGGCGGGAAGGTTTTTTTTCTAGAGGGGAATTGTTATCCGCTCACAATTCCCCTATAGTGAGTCGTATTA
modifications: DNA, backbone and methylation of C not given here
- ΔI/I0 ([3]; 78-nt ssDNA 4 μM, 10 μM HAuCl4, +100 mV, Blockade level 0): 0.23 ± 0.027
- Mean dwell time ([3]; 78-nt, Blockade level 0): 0.23 ± 0.025 ms
- Mean dwell time ([3]; 78-nt, Blockade level 1): 0.97 ± 0.17 ms
- ΔI/I0 ([3]; 78-nt, Blockade level 1): 0.37 ± 0.042
- Mean dwell time ([3]; 78-nt, Blockade level 2): 5.52 ± 1.14 ms
- ΔI/I0 ([3]; 78-nt, Blockade level 2): 0.59 ± 0.019
- Mean dwell time ([3]; 78-nt, Blockade level 3): 72.81 ± 13.98 ms
- ΔI/I0 ([3]; 78-nt, Blockade level 3): 0.88 ± 0.035
